# Test results taken from ChEMBL document CHEMBL3885881, “DrugMatrix”.
# Species: Rattus norvegicus
# Assay: DrugMatrix - Regimen: Daily Repeat
# Format: toxicity, organism-based, Sprague-Dawley
# Parameters: regimen Daily Repeat, gender Male, age 6-8 weeks
# Details: in vivo, po, 50 mg/kg, route oral GAVAGE, dose level Low, […]; for ABSOLUTE BASOPHIL / ABSOLUTE EOSINOPHIL / ABSOLUTE LYMPHOCYTE / ABSOLUTE MONOCYTE / ABSOLUTE SEGMENTED NEUTROPHIL / BASOPHIL / EOSINOPHIL / ERYTHROCYTE COUNT / HEMATOCRIT / HEMOGLOBIN / LEUKOCYTE COUNT / LYMPHOCYTE / MEAN CORPUSCULAR HEMOGLOBIN / MEAN CORPUSCULAR HEMOGLOBIN CONCENTRATION / MEAN CORPUSCULAR VOLUME / MONOCYTE / NEUTROPHIL / NUCLEATED RED BLOOD CELLS / PLATELET COUNT: tissue Blood; for ALANINE AMINOTRANSFERASE / ALBUMIN / ALKALINE PHOSPHATASE / ASPARTATE AMINOTRANSFERASE / BLOOD UREA NITROGEN / CARBON DIOXIDE / CHLORIDE / CHOLESTEROL / CREATINE PHOSPHOKINASE / CREATININE / GLUCOSE / LACTATE DEHYDROGENASE / LIPASE / PHOSPHORUS / POTASSIUM / SODIUM / TOTAL BILIRUBIN / TOTAL PROTEIN / URIC ACID: tissue Plasma
smiles,measurement,setting,value
COC(=O)Nc1nc2ccc(Sc3ccccc3)cc2[nH]1 [FENBENDAZOLE],ABSOLUTE BASOPHIL,"72 h, time 3 day",0 CELLS/uL
same,ABSOLUTE EOSINOPHIL,"72 h, time 3 day",0 CELLS/uL
same,ABSOLUTE LYMPHOCYTE,"72 h, time 3 day",13096 CELLS/uL
same,ABSOLUTE MONOCYTE,"72 h, time 3 day",168.67 CELLS/uL
same,ABSOLUTE SEGMENTED NEUTROPHIL,"72 h, time 3 day",1268.67 CELLS/uL
same,BASOPHIL,"72 h, time 3 day",0%
same,EOSINOPHIL,"72 h, time 3 day",0%
same,ERYTHROCYTE COUNT,"72 h, time 3 day",5.64 x10E6/uL
same,HEMATOCRIT,"72 h, time 3 day",35.13%
same,HEMOGLOBIN,"72 h, time 3 day",13.37 G/DL
same,LEUKOCYTE COUNT,"72 h, time 3 day",14.53 x10E3/uL
same,LYMPHOCYTE,"72 h, time 3 day",90.33%
same,MEAN CORPUSCULAR HEMOGLOBIN,"72 h, time 3 day",23.7 pg
same,MEAN CORPUSCULAR HEMOGLOBIN CONCENTRATION,"72 h, time 3 day",38.07 G/DL
same,MEAN CORPUSCULAR VOLUME,"72 h, time 3 day",62.37 fL
same,MONOCYTE,"72 h, time 3 day",1%
same,NEUTROPHIL,"72 h, time 3 day",8.67%
same,NUCLEATED RED BLOOD CELLS,"72 h, time 3 day",0 /100WBC
same,PLATELET COUNT,"72 h, time 3 day",1087 x10E3/uL
same,ALANINE AMINOTRANSFERASE,"72 h, time 3 day",79 u/L
same,ALBUMIN,"72 h, time 3 day",4.07 G/DL
same,ALKALINE PHOSPHATASE,"72 h, time 3 day",536.67 u/L
same,ASPARTATE AMINOTRANSFERASE,"72 h, time 3 day",137.67 u/L
same,BLOOD UREA NITROGEN,"72 h, time 3 day",15 mg/dL
same,CARBON DIOXIDE,"72 h, time 3 day",27.33 mmol/L
same,CHLORIDE,"72 h, time 3 day",99.33 MEQ/L
same,CHOLESTEROL,"72 h, time 3 day",87.33 mg/dL
same,CREATINE PHOSPHOKINASE,"72 h, time 3 day",508.67 u/L
same,CREATININE,"72 h, time 3 day",0.16 mg/dL
same,GLUCOSE,"72 h, time 3 day",146.33 mg/dL
same,LACTATE DEHYDROGENASE,"72 h, time 3 day",359 u/L
same,LIPASE,"72 h, time 3 day",10.67 u/L
same,PHOSPHORUS,"72 h, time 3 day",13.07 mg/dL
same,POTASSIUM,"72 h, time 3 day",6.5 MEQ/L
same,SODIUM,"72 h, time 3 day",143.5 MEQ/L
same,TOTAL BILIRUBIN,"72 h, time 3 day",0.3 mg/dL
same,TOTAL PROTEIN,"72 h, time 3 day",5.6 G/DL
same,URIC ACID,"72 h, time 3 day",1.7 mg/dL
same,ABSOLUTE BASOPHIL,"120 h, time 5 day",0 CELLS/uL
same,ABSOLUTE EOSINOPHIL,"120 h, time 5 day",126 CELLS/uL
same,ABSOLUTE LYMPHOCYTE,"120 h, time 5 day",15732 CELLS/uL
same,ABSOLUTE MONOCYTE,"120 h, time 5 day",245.33 CELLS/uL
same,ABSOLUTE SEGMENTED NEUTROPHIL,"120 h, time 5 day",1830 CELLS/uL
same,BASOPHIL,"120 h, time 5 day",0%
same,EOSINOPHIL,"120 h, time 5 day",0.67%
same,ERYTHROCYTE COUNT,"120 h, time 5 day",6.25 x10E6/uL
same,HEMATOCRIT,"120 h, time 5 day",37.37%
same,HEMOGLOBIN,"120 h, time 5 day",14.73 G/DL
same,LEUKOCYTE COUNT,"120 h, time 5 day",17.93 x10E3/uL
same,LYMPHOCYTE,"120 h, time 5 day",88%
same,MEAN CORPUSCULAR HEMOGLOBIN,"120 h, time 5 day",23.57 pg
same,MEAN CORPUSCULAR HEMOGLOBIN CONCENTRATION,"120 h, time 5 day",39.43 G/DL
same,MEAN CORPUSCULAR VOLUME,"120 h, time 5 day",59.83 fL
same,MONOCYTE,"120 h, time 5 day",1.33%
same,NEUTROPHIL,"120 h, time 5 day",10%
same,NUCLEATED RED BLOOD CELLS,"120 h, time 5 day",0 /100WBC
same,PLATELET COUNT,"120 h, time 5 day",1051.67 x10E3/uL
same,ALANINE AMINOTRANSFERASE,"120 h, time 5 day",164.33 u/L
same,ALBUMIN,"120 h, time 5 day",4.1 G/DL
same,ALKALINE PHOSPHATASE,"120 h, time 5 day",601.67 u/L
same,ASPARTATE AMINOTRANSFERASE,"120 h, time 5 day",203.67 u/L
same,BLOOD UREA NITROGEN,"120 h, time 5 day",13.67 mg/dL
same,CARBON DIOXIDE,"120 h, time 5 day",26.33 mmol/L
same,CHLORIDE,"120 h, time 5 day",99.33 MEQ/L
same,CHOLESTEROL,"120 h, time 5 day",85.33 mg/dL
same,CREATINE PHOSPHOKINASE,"120 h, time 5 day",602.33 u/L
same,CREATININE,"120 h, time 5 day",0.19 mg/dL
same,GLUCOSE,"120 h, time 5 day",143.67 mg/dL
same,LACTATE DEHYDROGENASE,"120 h, time 5 day",615.33 u/L
same,LIPASE,"120 h, time 5 day",11 u/L
same,PHOSPHORUS,"120 h, time 5 day",11.27 mg/dL
same,POTASSIUM,"120 h, time 5 day",6.24 MEQ/L
same,SODIUM,"120 h, time 5 day",142.9 MEQ/L
same,TOTAL BILIRUBIN,"120 h, time 5 day",0.27 mg/dL
same,TOTAL PROTEIN,"120 h, time 5 day",5.6 G/DL
same,URIC ACID,"120 h, time 5 day",2.17 mg/dL
